Patent publication US7220580B2, “Sphingosine 1-phosphate receptor gene, sppr” (University of South Florida, priority 2000, dated 2007)

Columns and labels:
[1] = target: T1, S1P5 (Homo sapiens, UniProt Q9H228); assay: Erk2 kinase assay in HEK293 cells transiently transfected with S1P5; format: cell-based; conditions: HEK293 cells transiently transfected with S1P5 and HA-Erk2, 1 μM ligand for 5 min, MBP as substrate
T1 construct: The largest PCR product contains a complete open reading frame; expressed in transfected cells; host or cells: HEK293
T1 sequence (Q9H228 whole entry): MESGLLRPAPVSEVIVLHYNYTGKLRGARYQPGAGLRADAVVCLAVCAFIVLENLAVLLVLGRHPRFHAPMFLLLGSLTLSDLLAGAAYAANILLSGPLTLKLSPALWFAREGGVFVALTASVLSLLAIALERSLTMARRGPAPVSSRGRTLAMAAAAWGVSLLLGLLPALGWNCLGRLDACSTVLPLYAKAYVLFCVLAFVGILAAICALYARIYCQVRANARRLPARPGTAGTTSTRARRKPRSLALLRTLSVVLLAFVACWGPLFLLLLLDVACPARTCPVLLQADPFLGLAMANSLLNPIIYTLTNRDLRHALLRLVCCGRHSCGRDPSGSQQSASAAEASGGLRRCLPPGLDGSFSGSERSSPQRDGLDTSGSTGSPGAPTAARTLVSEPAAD
Protocol: Vector plasmid is added to each transfection reaction to equalize the amount of total DNA (2.1 μg). […] HA-ERK2 is immunoprecipitated from one half of each whole cell lysate and used for measuring the kinase activity utilizing MBP as substrate, while HA-ERK2 immunoprecipitated from the other half is used for determining the amount of ERK2 protein in the immune complex. FIG. 10 illustrates a representative autoradiogram of ^32P incorporation into MBP catalyzed by HA-ERK 2 immunoprecipitated from transiently transfected cells treated as indicated. […] Cell Culture and Transfection. HEK293 cells are grown in Dulbecco's modified eagle's medium supplemented with 10% fetal bovine serum. The cells are transiently transfected with a plasmid encoding HA-tagged Erk2 (HA-Erk2) and either pcDNA 3 S1P5 or pcDNA 3.1. Transfection is achieved by incubating the cells in 60 mm plates with plasmid/Lipofectamine complexes (2.1 μg total DNA/12 μl Lipofectamine) in serum-free medium for 5 hours. The DNA complexes are removed from the medium and the cells are starved overnight in serum-free medium and then used for experimentation. Erk2 Kinase Assay. […] The cells are lysed in buffer containing 50 mM Tris-HC1 pH 7.5, 150 mM NaCl, 1 mM EDTA, 1 mM EGTA, 1 mM DTT, 1% Triton X-100, 25 mM NaF, 5 mM sodium pyrophosphate, 20 mM ρ-nitrophenyl phosphate, 2 μg/mL leupeptin, and 100 μg/mL phenylmethylsulfonyl fluoride. HA-Erk2 is immunoprecipitated with the monoclonal antibody HA.11 (Convance, Richmond, Calif.). […] The reaction is terminated with SDS-containing gel-loading buffer and the reaction mixtures are analyzed on 11% SDS-polyacrylamide gels. The gels are processed by autoradiography. The bands on the gels are quantitated with a PhosphorImager. Erk2 protein in the immunoprecipitate is determined by immunoblotting with a polyclonal antibody to Erk2.

[2] = target: T2, EDG-8 (Rattus norvegicus, UniProt Q9JKM5); conditions: CHO cells expressing EDG-8; cited from earlier work
T2 construct: host or cells: CHO cells
T2 sequence (Q9JKM5 whole entry): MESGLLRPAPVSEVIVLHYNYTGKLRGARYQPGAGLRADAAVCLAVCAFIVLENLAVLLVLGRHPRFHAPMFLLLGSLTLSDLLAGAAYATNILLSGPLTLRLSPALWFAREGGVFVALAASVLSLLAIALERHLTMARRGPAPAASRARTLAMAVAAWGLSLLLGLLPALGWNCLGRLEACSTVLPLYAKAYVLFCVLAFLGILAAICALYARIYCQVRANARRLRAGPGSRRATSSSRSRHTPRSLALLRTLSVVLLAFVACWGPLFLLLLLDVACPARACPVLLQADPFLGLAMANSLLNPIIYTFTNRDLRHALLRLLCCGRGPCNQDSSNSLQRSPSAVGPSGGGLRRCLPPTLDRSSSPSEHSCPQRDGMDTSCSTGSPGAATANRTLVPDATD

[3] = target: T2, EDG-8; conditions: CHO cells expressing EDG-8; cited from earlier work; remark: listed apart in the source

Molecule	activation of Erk2 activity [1]	activation of Erk2 activity ([1]; listed as lysophosphatidic acid)	activation of Erk2 activity ([1]; listed as sphingosine-1-phosphate)	serum-induced activation of Erk1/2 [2]	cell proliferation [3]
lysophosphatidic acid [LPA]	not	does not	–	–	–
CCCCCCCCCCCCC/C=C/[C@@H](O)[C@@H](N)COP(=O)(O)O [S1P, sphingosine-1-phosphate]	activates Erk2	–	activation of Erk2 activity	inhibited	inhibits the cell proliferation
